Target: T1, GPR86 (P2Y13) human receptor (Homo sapiens, UniProt Q9BPV8, T179M)
T1 sequence (Q9BPV8 22-354 T179M): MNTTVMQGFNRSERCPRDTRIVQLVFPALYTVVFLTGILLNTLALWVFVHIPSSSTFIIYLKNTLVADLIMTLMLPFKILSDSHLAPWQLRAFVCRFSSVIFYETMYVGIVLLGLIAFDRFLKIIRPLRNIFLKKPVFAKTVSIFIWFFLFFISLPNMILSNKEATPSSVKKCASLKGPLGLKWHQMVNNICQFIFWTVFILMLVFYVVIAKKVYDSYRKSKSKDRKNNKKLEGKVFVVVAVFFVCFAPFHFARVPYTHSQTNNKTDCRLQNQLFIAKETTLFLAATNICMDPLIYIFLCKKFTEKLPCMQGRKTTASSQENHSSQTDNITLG
Experiment: IP3 accumulation in 1321N1 cells (AG32) expressing GPR86 (P2Y13) together with Gα16
Assay type: cell-based
Parameters: expressed in transfected cells; host or cells: 1321N1 astrocytoma clone AG32 (stably expressing Gα16 from pERAEQ2), G418-selected
Details: for EC50: 1321N1 cells expressing GPR86 and Gα16, 30 s, mean±S.D. of three independent experiments, read-out: EC50, IP3 accumulation
Method: Cells of the invention, for example, 1321N1 cells, are labelled for 24 hours with 10 μCi/ml [^3H] inositol in inositol free DMEM containing 5% FCS, antibiotics, amphotericin, sodium pyruvate and 400 μg/ml G418. Cells are incubated for 2 h in Krebs-Ringer Hepes (KRH) buffer of the following composition (124 mM NaCl, 5 mM KCl, 1.25 mM MgSO4, 1.45 mM CaCl2, 1.25 mM KH2PO4, 25 mM Hepes (pH: 7.4) and 8 mM glucose). The cells are then challenged with various nucleotides for 30 s. The incubation is stopped by the addition of an ice cold 3% perchloric acid solution. IP are extracted and separated on Dowex columns as previously described (25). 2MeSATP and ATP solutions (1 mM) are treated at room temperature with 20 units/ml CPK and 10 Mm cp for 90 min to circumvent problems arising from the contamination and degradation of triphosphate nucleotide solutions.
CHO-K1 and 1321N1 cells were transfected with the recombinant GPR86-pEFIN5 plasmid or with the plasmid alone using the FuGENE™6 transfection reagent (Roche Molecular Biochemicals). A clone called AG32 corresponding to 1321N1 cells previously transfected with pERAEQ2 plasmid encoding Gα16 (provided by Euroscreen), was transfected. The CHO-K1 and 1321N1 transfected cells were selected with 400 μg/ml G418 in complete medium (10% FBS, 100 units/ml penicillin, 100 μg/ml streptomycin and 2.5 μg/ml amphotericin B in respectively Ham's F12 or DMEM (Dulbecco's modified Eagle's) medium) two days after transfection and maintained in the same medium. The AG32 cells were maintained in the same DMEM complete medium supplemented with 500 μg/ml zeocin.
The pool of G418-resistant clones was tested for its functional IP3 response to several nucleotides, according to the method described above. The cells were challenged by various nucleotides at a concentration of 100 μM for 30 s: ATP, ADP, UTP, UDP, ITP, IDP, TDP.
Concentration-action curves for ADP, 2MeSADP and ADPβS. […] 1321N1 transfected cells were incubated in the presence of various concentrations of ADP, 2MeSADP and ADPβS for 30 s. The data represent the mean±S.D. of triplicate experimental points obtained in one representative experiment of three.
AG32 cells were seeded (200,000 cells per dish) on 35 mm (diameter) Petri dishes and labeled for 24 h with 5 μCi/ml [3H]-myoinositol in inositol free DMEM containing 5% fetal calf serum, antibiotics, amphotericin, sodium pyruvate, and 400 μg/ml of G418. Cells were incubated for 2 h in Krebs-Ringer Hepes (KRH) buffer (124 mM NaCl, 5 mM KCl, 1.25 mM MgSO4, 1.45 mM CaCl2, 1.25 mM KH2PO4, 25 mM Hepes (pH 7.4) and 8 mM D-glucose). The cells were then incubated in presence of ADP, ATP or 2MeSATP for 30 s. The incubation was stopped by the addition of 1 ml of an ice-cold 3% perchloric acid solution. Prior to the stimulation, ATP and 2MeSATP (1 mM solutions) were incubated for 90 min at room temperature with 20 units/ml creatine phosphokinase (CPK) and 10 mM creatine phosphate (CP). The reaction was stopped by addition of 10 mM iodoacetamide.
AG32 cells were seeded (200,000 cells per dish) on 35 mm (diameter) Petri dishes and labeled for 24 h with 5 μCi/ml [^3H]-myoinositol in inositol free DMEM containing 5% fetal calf serum, antibiotics, amphotericin, sodium pyruvate, and 400 μg/ml of G418. Cells were incubated for 2 h in Krebs-Ringer Hepes (KRH) buffer (124 mM NaCl, 5 mM KCl, 1.25 mM MgSO4, 1.45 mM CaCl2, 1.25 mM KH2PO4, 25 mM Hepes (pH 7.4) and 8 mM D-glucose). The cells were then incubated in presence of two different concentrations (100 nM and 10 μM) of ADP or ApnA (n=3-6) for 30 s. The incubation was stopped by the addition of 1 ml of an ice-cold 3% perchloric acid solution.
AG32 cells were seeded (200,000 cells per dish) on 35 mm (diameter) Petri dishes and labeled for 24 h with 5 μCi/ml [^3H]-myoinositol in inositol free DMEM containing 5% fetal calf serum, antibiotics, amphotericin, sodium pyruvate, and 400 μg/ml of G418.

## CSc1nc(N)c2ncn([C@@H]3O[C@H](COP(=O)(O)OP(=O)(O)O)[C@@H](O)[C@H]3O)c2n1 [2MeSADP, 2-methylthio-ADP]
  EC50: 14.2 ± 3 nM

## Nc1ncnc2c1ncn2[C@@H]1O[C@H](COP(=O)(O)OP(=O)(O)O)[C@@H](O)[C@H]1O [ADP]
100 μM for 30 s, pool of G418-resistant clones expressing GPR86 and Gα16
  IP3 response to nucleotides: induced an IP3 response
  EC50: 11.4 ± 2.2 nM

— patent US7422846B2, “Natural ligand for orphan G protein coupled receptor GPR86 and methods of use” (Euroscreen S.A, priority 2001, dated 2008)
